Publication PMC3906059, “Activation and Inhibition of TMEM16A Calcium-Activated Chloride Channels” (PLoS ONE, 2014)
Where “and” joins values, the source holds several entries; their conditions need not be identical. Equal entries are not always repeated. Entries after “also recorded” stand apart in the source; their conditions may differ.

Key:
CaCC of Xenopus oocytes = system: CaCC of Xenopus oocytes; design: method as in PMID 11279188; conditions: cited from earlier work
TMEM16A (ANO1) [1] = target: T1, TMEM16A (ANO1) (Mus musculus, UniProt Q8BHY3); experiment: Activation of ANO1 current by divalent cations, excised inside-out patch with fast solution exchange; assay type: cell-based; conditions: for maximal ANO1 current activated by saturating divalent cation compared with Is induced by saturating [Ca^2+]: Is induced by 20 µM Ca^2+, ±40 mV; for Hill coefficient (n) of dose-response activation curve / EC50: values covering +40 and −40 mV; for EC50: read-out: K1/2 of ANO1 activation
T1 construct: We subcloned the coding region of the cDNA into pEGFP-N3 vector; expressed in transfected cells; host or cells: HEK293 cells
T1 sequence (Q8BHY3 1-956 isoform Q8BHY3-2): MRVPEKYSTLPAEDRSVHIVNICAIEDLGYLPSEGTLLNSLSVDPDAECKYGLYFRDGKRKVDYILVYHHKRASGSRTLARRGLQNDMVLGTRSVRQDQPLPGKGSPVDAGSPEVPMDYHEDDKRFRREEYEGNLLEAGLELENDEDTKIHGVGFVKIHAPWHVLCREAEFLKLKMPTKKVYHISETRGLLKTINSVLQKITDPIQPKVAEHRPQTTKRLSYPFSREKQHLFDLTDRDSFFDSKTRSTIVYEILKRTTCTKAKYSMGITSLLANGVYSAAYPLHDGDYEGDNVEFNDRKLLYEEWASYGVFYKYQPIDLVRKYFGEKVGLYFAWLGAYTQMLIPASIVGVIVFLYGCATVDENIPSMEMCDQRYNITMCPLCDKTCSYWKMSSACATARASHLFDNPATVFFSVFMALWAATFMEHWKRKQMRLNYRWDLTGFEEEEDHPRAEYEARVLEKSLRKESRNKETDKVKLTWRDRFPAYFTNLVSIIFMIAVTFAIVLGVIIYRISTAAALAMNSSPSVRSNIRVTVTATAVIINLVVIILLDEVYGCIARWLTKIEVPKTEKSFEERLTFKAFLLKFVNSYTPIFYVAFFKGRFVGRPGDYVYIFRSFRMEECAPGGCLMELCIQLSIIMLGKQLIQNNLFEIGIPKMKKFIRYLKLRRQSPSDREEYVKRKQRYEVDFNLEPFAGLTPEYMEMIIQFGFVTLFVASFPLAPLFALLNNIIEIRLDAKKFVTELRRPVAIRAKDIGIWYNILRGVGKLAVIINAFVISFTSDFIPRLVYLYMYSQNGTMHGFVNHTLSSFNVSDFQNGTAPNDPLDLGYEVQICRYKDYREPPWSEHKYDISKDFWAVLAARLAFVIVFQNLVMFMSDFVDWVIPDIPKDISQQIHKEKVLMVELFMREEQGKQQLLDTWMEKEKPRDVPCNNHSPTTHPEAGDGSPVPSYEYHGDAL
Source text: (§1) The mouse TMEM16A cDNA (NCBI reference sequence: NM_001242349.1) encoding ANO1 CaCC was a generous gift from Dr. Lily Jan. We subcloned the coding region of the cDNA into pEGFP-N3 vector (Clontech Laboratories, Inc.), resulting in a construct in which an enhanced green fluorescent protein (eGFP) was attached to the C-terminus of the ANO1 protein. The sequence was confirmed by commercially-available DNA sequencing service. This eGFP-attached ANO1 cDNA construct was used for channel expression throughout the study. The cDNA was transfected into human embryonic kidney (HEK) 293 cells using lipofectamine transfection methods, [42], [43]. A fluorescent light source and a GFP filter set (Chroma Technology Co.) in the DM IRB inverted microscope (Leica Microsystems) were used to identify transfected cells expressing channel proteins. Electrophysiological experiments were performed ∼24 to 72 hours after transfection.
All chemicals were reagent grade. Regular salts (such as NaCl, NaOH, CaCl2, SrCl2, BaCl2, MgCl2 or sodium salts of various anions) were purchased from Fisher Chemicals (Fair Lawn, NJ), J. T. Baker (Phillipsburg, NJ) or Sigma Chemicals Co. (St. Louis, MO). EGTA, HEPES, and NFA were from Sigma Chemicals Co. Excised inside-out patch-clamp recordings were performed throughout the study. The extracellular (pipette) solution in all experiments contained: 140 mM NaCl, 10 mM HEPES, 0.1 mM EGTA, pH = 7.4. The regular intracellular solution contained 10 mM HEPES and 140 mM sodium salt of Cl^− or other anions. Various concentrations of divalent cations were made by adding certain total concentrations of divalent cations (Cl^− salts) into the solution containing a defined concentration of EGTA. We defined the pipette solution as the “zero-Ca^2+” solution. A solution containing a saturating [Ca^2+] was made by adding 0.12 mM total [Ca^2+] into the aforementioned zero-Ca^2+ solution, resulting in a solution containing ∼20 µM free [Ca^2+]. For making non-saturating [Ca^2+] solutions, the solutions included 1 mM EGTA. To make solutions containing Sr^2+ and Ba^2+, only 0.1 mM EGTA was used. The pH of all solutions was adjusted to 7.4.
Because of weak Mg^2+-EGTA binding, we referred the total [Mg^2+] as the free [Mg^2+]. The free [Ca^2+], [Sr^2+], and [Ba^2+] were calculated using the MaxChelator program (Ver1.2) kindly provided by Chris Patton from the Stanford University. This program was developed based on the binding constants available in the National Institute of Standard and Technology (NIST) between EGTA and these three divalent cations. Table S1, Table S2, and Table S3 list respectively the calculated free [Ca^2+], [Sr^2+], and [Ba^2+] used in this study. All added divalent cations were Cl^− salts. […] For example, in a solution containing 5 mM, 10 mM or 30 mM MgCl2, only 130 mM, 120 mM or 80 mM of NaCl, respectively, were added to the solution.
The patch-clamp recording pipettes were fabricated from borosilicate glass capillaries (World Precision Instruments) using PP830 electrode puller (Narishige International). When filled with the pipette solution, the electrode resistance was ∼1.5–3 MΩ. The experiments were carried out at room temperature (20–23°C) using the Axopatch 200B amplifier controlled by the Digidata I/O converter and the pClamp9 software (Axon Instruments/Molecular Devices).
Solution exchange was achieved using the SF-77 solution exchanger (Warner Instruments). After the excised inside-out patch mode was established, the tip of the patch pipette was positioned at the exit of the solution-delivery pipes of the SF-77 solution exchanger. The switch of solution pipes was controlled by a digital signal delivered from the Digidata 1320 digitizing board. […]

TMEM16A (ANO1) [2] = target: T1, TMEM16A (ANO1); experiment: Anion permeability of the ANO1 pore, Erev under bi-ionic conditions; assay type: cell-based; conditions: for permeability ratio PX/PCl: Ca^2+-activated current, calculated from Erev after junction potential correction; for zero current potential of I–V curve: example ramp −80 to +80 mV, [Ca^2+] = 20 µM, intracellular salt 140 mM (NaHCO3 130 mM + 10 mM NaCl)
Source text: as §1
The anion permeability of the ANO1 pore was examined under bi-ionic conditions in which the extracellular solution contained 140 mM NaCl (the zero-Ca^2+ solution). The intracellular solution contained 140 mM sodium salts of various anions with the exception of the HCO3 ^− experiment in which the solution contained 130 mM NaHCO3 and 10 mM NaCl. In all intracellular solutions for the bi-ionic experiments, 0.1 mM EGTA and 0.12 mM total Ca^2+ or Sr^2+ were added to the solution to activate the ANO1 channel (Free [Ca^2+] or [Sr^2+] were saturating concentrations). Erev of the open channel was measured in two ways. First, under voltage-clamp configuration, a 3-sec voltage ramp from −80 mV to +80 mV was applied and the Erev of the leak-subtracted I-V curve was then determined (see Fig. 5 A & B). The second method employed the current-clamp (I = 0) mode in which the patch was exposed to divalent cations throughout the recording (Fig. 5 C and Fig. 6 A & C). When the intracellular solution contained the same concentration of Cl^− as that in the extracellular side, the recorded voltage (EI = 0) was normally close to 0 mV. When the intracellular solution was replaced by the one containing other anions, the value of EI = 0 changed to a new value corresponding to the Erev of the new ionic condition. It is important to point out that the measurement of Erev can be imprecise if the amplitude of the ANO1 current is not within a proper range. Therefore, in permeability ratio measurements we only used the data obtained from patches with a maximal current in the range of 100 pA–1000 pA at +40 mV. All the presented Erev values (and the recording traces for measuring Erev) are not corrected for junction potential difference between solutions because the junction potentials are relatively small. However, the reported permeability ratios were calculated based on the junction potential-corrected Erev. The correction for the junction potential results in very small changes in the calculated permeability ratios.
The permeability ratios of various anions versus Cl^− (PX/PCl, where X represents various anions) were calculated using the Erev obtained from bi-ionic experiments according to the following equation (eq. 3), PX/PCl = exp[Erev/(RT/F)], where R, T, and F are the gas constant, absolute temperature, and Faraday constant, respectively. Comparing the difference between Erev’s of the Ca^2+- and Sr^2+-activated current was performed using the pair t test at the significant level of 0.05.

[3] = Ca^2+-activated current (20 µM), 140 mM extracellular NaCl, anion as intracellular sodium salt 140 mM (HCO3: 130 mM NaHCO3 + 10 mM NaCl), without junction potential correction, averaged
[4] = current activated by 20 µM Sr^2+, current clamp (I = 0), without correcting for junction potential

SMILES | Erev (bi-ionic potential) (TMEM16A (ANO1) [2]; [3]) [mV] | permeability ratio PX/PCl (TMEM16A (ANO1) [2]) | Erev (bi-ionic potential) (TMEM16A (ANO1) [2]; [4]) [mV] | zero current potential of I–V curve (TMEM16A (ANO1) [2]; 140 mM extracellular NaCl) | further results
O=C(O)c1c2ccccc2cc2ccccc12 [A9C] | – | – | – | – | sideness of the block (CaCC of Xenopus oocytes): from the extracellular side; voltage dependence of inhibition (CaCC of Xenopus oocytes): voltage dependent
[Ba+2].[Cl-].[Cl-] [Ba^2+] | – | – | – | – | fraction of maximal current activated (TMEM16A (ANO1) [1]; 404 µM [Ba^2+]): 70–80%; maximal ANO1 current activated by saturating divalent cation compared with Is induced by saturating [Ca^2+] (TMEM16A (ANO1) [1]): can activate the same maximal current; also recorded: activated the channel to the same maximal current level; Hill coefficient (n) of dose-response activation curve (TMEM16A (ANO1) [1]): 1.1–1.4 and 1–1.5; EC50 (TMEM16A (ANO1) [1]): 130 to 230 µM and 100 to 200 µM
[Br-].[Na+] [Br^−] | 18.0±1.2 | ~2.1 | 16.2±0.4 | +17 mV | –
O=S(=O)(O)c1cc(N=C=S)ccc1C=Cc1ccc(N=C=S)cc1S(=O)(=O)O [DIDS] | – | – | – | – | voltage dependence of inhibition (CaCC of Xenopus oocytes): voltage dependent
O=C(O)c1ccccc1Nc1ccccc1 [DPC] | – | – | – | – | sideness of the block (CaCC of Xenopus oocytes): from the extracellular side; voltage dependence of inhibition (CaCC of Xenopus oocytes): voltage dependent
O=C([O-])O.[Na+] [HCO3 ^−] | −27.6±2.4 | ~0.3 | – | -27 mV | –
[I-].[Na+] [I^−] | 35.9±3.3 | ~4.1 | 33.4±0.3 | +39 mV | Erev (bi-ionic potential) (TMEM16A (ANO1) [2]; Ca^2+-activated current (20 µM), 140 mM extracellular NaCl, anion as intracellular sodium salt 140 mM (HCO3: 130 mM NaHCO3 + 10 mM NaCl), without junction potential correction, averaged, listed as I^–): ~+35 mV
O=[N+]([O-])[O-].[Na+] [NO3 ^−] | 32.9±1.1 | ~3.5 | 31.3±0.5 | +33 mV | –
N#C[S-].[Na+] [SCN^−] | 62.0±2.4 | ~11 | 59.4±0.8 | +64 mV | Erev (bi-ionic potential) (TMEM16A (ANO1) [2]; Ca^2+-activated current (20 µM), 140 mM extracellular NaCl, anion as intracellular sodium salt 140 mM (HCO3: 130 mM NaHCO3 + 10 mM NaCl), without junction potential correction, averaged, listed as SCN^–): ~+60 mV; voltage shift induced by SCN^− in Sr^2+ smaller than that in Ca^2+ by (TMEM16A (ANO1) [2]; same patch, 140 mM intracellular NaSCN, 4 patches): ~1 mV
[Cl-].[Cl-].[Sr+2] [Sr^2+] | – | – | – | – | maximal ANO1 current activated by saturating divalent cation compared with Is induced by saturating [Ca^2+] (TMEM16A (ANO1) [1]): can activate the same maximal current; also recorded: activated the channel to the same maximal current level; Hill coefficient (n) of dose-response activation curve (TMEM16A (ANO1) [1]): 2–2.6 and ~2; EC50 (TMEM16A (ANO1) [1]): 5 to 10 µM and ~5 µM; difference of Erev between channels activated by Sr^2+ and Ca^2+ (TMEM16A (ANO1) [2]): 1–2 mV
N[C@@H](CCC(=O)O)C(=O)[O-].[Na+] [glutamate, Na-glutamate] | < −80 | – | – | – | –
